Data as given in publication PMC3608651, “A Broad Profile of Co-Dominant Epitopes Shapes the Peripheral Mycobacterium tuberculosis Specific CD8+ T-Cell Immune Response in South African Patients with Active Tuberculosis” (PLoS ONE, 2013).
Read-outs that look alike come from different tables or passages of the source.

Legend:
Format in all cases: binding
HLA-A*30:02 [1] = target: T1, HLA-A*30:02 (Homo sapiens, UniProt P04439, D101N/D140H/D185E/E176R/F33S/G80R/H175R/K168Q/Q94H/R138E/R41S/V100E)
HLA-B*07:02 = HLA-B*07:02 (Homo sapiens, UniProt P01889); settings: percent relative the binding of positive control peptide […]; duplicated experiments; positive binder >40%
HLA-B*58:01 = HLA-B*58:01 (Homo sapiens, UniProt P01889, A329T/C349S/D201E/D98Y/E176V/E187L/E204Q/E69T/G107R/I218V/I90N/K202T/L105A/L119I/N104I/N87E/Q89R/Q94S/R106L/R155S/R180L/R86G/S101N/S121R/S35A/S48A/T118I/V127L/V306I/V36M/Y140S/Y91M); settings: duplicated experiments, positive binder >40%
HLA-A*30:02 [2] = target: T1, HLA-A*30:02; settings: duplicated experiments, positive binder >40%
HLA-A*68:01 = HLA-A*68:01 (Homo sapiens, UniProt P04439, A269V/D185E/E176V/E277Q/E87N/F33Y/G231S/I121M/I166T/I218V/L180W/L300P/L318F/N151K/P208A/P217A/Q86R/R169H/T345S); settings: duplicated experiments, positive binder >40%
HLA-A*30:02 [3] = target: T1, HLA-A*30:02; settings: time points 0-8 h
HLA-C*07:01 = HLA-C*07:01 (Homo sapiens, UniProt P10321, K90N/S123Y); settings: duplicated experiments, positive binder >40%
HLA-A*02:01 = HLA-A*02:01 (Homo sapiens, UniProt P04439, D140Y/D185E/D98H/E176V/E277Q/G131W/G231S/I119V/I121R/I166T/I218V/L300P/L318F/N151K/N90K/P208A/P217A/Q86G/Q94H/R138H/R169H/T345S); settings: plate-bound monomer 0.5 µg/ml, duplicated experiments, positive binder >40%
HLA-A*30:01 = HLA-A*30:01 (Homo sapiens, UniProt P04439, D140H/D185E/E176W/F33S/G80R/H175R/K168Q/R138E/R41S); settings: duplicated experiments, positive binder >40%
HLA-A*24:02 = HLA-A*24:02 (Homo sapiens, UniProt P04439, D101N/D140Y/D185E/E176V/E190D/F33S/G103R/G107R/I119L/I121M/I306V/K335N/L105A/L180Q/L300P/N151K/N90K/Q86E/Q94H/R106L/R138H/R89G/T104I/T345S/V100E/W191G/Y123F); settings: duplicated experiments, positive binder >40%
[4] = percent relative the binding of positive control peptide […]
[5] = peptide titrated 10−4 to 10−9 M
[6] = percent relative the binding of positive control peptide IAMESIVIW
[7] = percent relative the binding of positive control peptide KIQNFRVYY
[8] = percent relative the binding of positive control peptide KTGGPIYKR
[9] = percent relative the binding of positive control peptide KYFDEHYEY
[10] = percent relative the binding of positive control peptide FLPSDFFPSV
[11] = percent relative the binding of positive control peptide KTKDIVNGL
[12] = percent relative the binding of positive control peptide RYLKDQQLL

Substance | Aff A*30:02 (ED50) (HLA-A*30:02 [1]) | Bind B*07:02 (HLA-B*07:02) [%] | Bind B*58:01 (HLA-B*58:01; [4]) [%] | Bind A*30:02 (HLA-A*30:02 [2]; [4]) [%] | Bind A*68:01 (HLA-A*68:01; [4]) [%] | O-rate A*30:02 (t1/2) (HLA-A*30:02 [3]) [h] | Bind C*07:01 (HLA-C*07:01; [4]) [%] | Bind A*02:01 (HLA-A*02:01; [4]) [%] | Bind A*30:01 (HLA-A*30:01; [4]) [%] | Bind A*24:02 (HLA-A*24:02; [4]) [%] | Aff A*30:02 (ED50) (HLA-A*30:02 [1]; [5]) [M] | Bind B*58:01 (HLA-B*58:01; [6]) [%] | Bind A*30:02 (HLA-A*30:02 [2]; [7]) [%] | Bind A*68:01 (HLA-A*68:01; [8]) [%] | Bind C*07:01 (HLA-C*07:01; [9]) [%] | Bind A*02:01 (HLA-A*02:01; [10]) [%] | Bind A*30:01 (HLA-A*30:01; [11]) [%] | Bind A*24:02 (HLA-A*24:02; [12]) [%]
RAQDDYNGW | 5e-07 M | 0 | 41 | 119 | 2 | 1.2 | 2 | 0 | 11 | 65 |  |  |  |  |  |  |  | 
PAVYLLDGL | 9E -08 M | 63 | 0 | 120 | 2 | 1 | 17 | 9 | 0 | 38 |  |  |  |  |  |  |  | 
MTEQQWNFA [Rv3875_1–9] |  | 2 |  |  |  | 1.4 |  |  |  |  | 2e-08 | 2 | 52 | 25 | 0 | 13 | 0 | 0
CGKAGCQT Y | 8E -08 M | 8 | 35 | 138 | 60 | 3 | 5 | 44 | 28 | 32 |  |  |  |  |  |  |  | 
AGQAMASTE [Rv3875_79–87] |  | 9 |  |  |  | 2.3 |  |  |  |  | 5e-09 | 11 | 58 | 13 | 28 | 0 | 20 | 0
TATELNNAL [Rv3875_61–69] |  | 12 |  |  |  | 2.6 |  |  |  |  | 9e-09 | 0 | 106 | 13 | 5 | 11 | 4 | 15
SAIQGNVTS [Rv3875_16–24] |  | 4 |  |  |  | 0.9 |  |  |  |  | 3e-08 | 12 | 67 | 29 | 12 | 1 | 11 | 15
QQKWDATAT [Rv3875_55–63] |  | 9 |  |  |  | 1.7 |  |  |  |  | 9e-08 | 8 | 60 | 9 | 4 | 0 | 29 | 0
WGGSGSEAY [Rv3875_43–51] |  | 7 |  |  |  | 1.1 |  |  |  |  | 4e-07 | 2 | 89 | 2 | 21 | 3 | 18 | 0
AYHPQQFIY | 1E -07 M | 0 | 35 | 111 | 5 | 1.9 | 43 | 13 | 6 | 60 |  |  |  |  |  |  |  | 
AWGGSGSEA [Rv3875_42–50] |  | 6 |  |  |  | 1.7 |  |  |  |  | 8e-07 | 6 | 90 | 11 | 29 | 4 | 16 | 4
RTISEAGQA [Rv3875_74–82] |  | 11 |  |  |  | 2 |  |  |  |  | 3e-08 | 34 | 98 | 4 | 8 | 18 | 19 | 0
LVANNT RLW | 5e-07 M | 50 | 50 | 68 | 38 | 0.5 | 26 | 21 | 2 | 88 |  |  |  |  |  |  |  | 
SNLKFQDAY | 2e-07 M | 0 | 14 | 124 | 18 | 1.6 | 52 | 11 | 0 | 23 |  |  |  |  |  |  |  | 
MKGDLQSSL | 2e-05 M | 17 | 0 | 90 | 19 | 2.8 | 63 | 16 | 14 | 22 |  |  |  |  |  |  |  | 
LQNLARTIS [Rv3875_69–77] |  | 10 |  |  |  | 2.1 |  |  |  |  | 1e-08 | 20 | 77 | 8 | 3 | 27 | 11 | 26
KAADMW GPS | 7E -09 M | 18 | 21 | 103 | 17 | 0.8 | 34 | 33 | 1 | 4 |  |  |  |  |  |  |  | 
IYAGSLSAL | 4E -06 M | 83 | 16 | 116 | 4 | 0.5 | 0 | 44 | 0 | 107 |  |  |  |  |  |  |  | 
SAMILAAYH | 4e-08 M | 7 | 0 | 111 | 69 | 2.2 | 15 | 9 | 0 | 0 |  |  |  |  |  |  |  | 
VFNFPPNGT | 3e-05 M | 0 | 33 | 113 | 3 | 1.2 | 0 | 34 | 3 | 25 |  |  |  |  |  |  |  | 
RSSNLKFQD | 1E -05 M | 3 | 14 | 104 | 11 | 1.6 | 64 | 11 | 0 | 26 |  |  |  |  |  |  |  | 
GVQQKWDAT [Rv3875_53–61] |  | 10 |  |  |  | 1.3 |  |  |  |  | 3e-08 | 6 | 78 | 0 | 9 | 0 | 9 | 0
